Measurements published in ChEMBL document CHEMBL3430912, “GSK Tres Cantos Anti-Kinetoplastid Screening (TCAKS) Data”.

Assays:
Trypanosoma cruzi [1] = assay: GSK_TCAKS: pIC50 Trypanosoma cruzi viability assay using beta-GAL activity. This assay was run at single shot at 5uM compound concentration per well. The biological reagents consisted of NIH-3T3 host cells and trypomastigotes parasitic cells; both cell types were set to a 3.3 * 10^5 cells/mL dilution in assay DMEM by means of a CASY cell counter device using a 60um capillary. 6 uL of the mixture were dispensed per well (about 1 * 10^3 host-cells and 1 * 10^3 parasites) with a Multidrop Combi dispenser. […] In all wells, the percentage of DMSO never exceeded 0.5%. Plates incubated for four days at 37C, 5% CO2. The substrate used for the assay fluorescence intensity (FLINT) readout was resorufin-beta-D-galactopiranoside (Sigma-Aldrich) at 5uM per well. It was diluted in PBS supplemented with the soft detergent Igepal (Fluka).; assay type: functional, organism-based, Mus musculus; conditions: Tulahuen, NIH3T3
Trypanosoma cruzi [2] = assay: (§1) GSK_TCAKS: pIC50 Trypanosoma cruzi Imaging: Infected Cells. […] Cells were then washed once with PBS before infection. T. cruzi trypomastigotes, collected at days 5 to 8 after infection from LLC-MK2 parasite infected cultures, were allowed to swim out for 4h at 37C from a centrifuged pellet (2,500 rpm/10 min/room temperature). Trypomastigotes were then collected and counted in a CASY Cell Counter. Trypomastigotes, in supplemented DMEM, were added to H9c2 cultures in a multiplicity of infection of 1 and incubated for 18 h. Cells were washed once with PBS before incubation of the infected H9c2 monolayer with trypsin (Life-Technologies) to detach cells from the flask. Cells were counted in a CASY Cell Counter using a 150 um capillary and their density set at 5 * 10^4 cells per mL in supplemented assay DMEM. Infected H9c2 were dispensed into 384-well poly-lysine coated assay plates at 50uL per well using a Multidrop Combi dispenser. After seeding them, the plates were incubated at 37C, 5% CO2 for 72h. Cultures were then fixed and stained by addition of 50 uL of a solution containing 8% formaldehyde and 4 uM DRAQ5 DNA dye (BioStatus, UK) per well. […] Five images were collected per well for reliable statistical analysis. Automated image analysis was performed with a script developed on Acapella High Content Imaging and Analysis Software (PerkinElmer). Output: percentage of infected cells per well as a second infection marker.; assay type: functional, organism-based, Rattus norvegicus; conditions: H9c2, 4 h
Trypanosoma cruzi [3] = assay: GSK_TCAKS: pIC50 Trypanosoma cruzi Imaging: Amastigotes/Cell. […] Cells were then washed once with PBS before infection. T. cruzi trypomastigotes, collected at days 5 to 8 after infection from LLC-MK2 parasite infected cultures, were allowed to swim out for 4h at 37C from a centrifuged pellet (2,500 rpm/10 min/room temperature). Trypomastigotes were then collected and counted in a CASY Cell Counter. Trypomastigotes, in supplemented DMEM, were added to H9c2 cultures in a multiplicity of infection of 1 and incubated for 18 h. Cells were washed once with PBS before incubation of the infected H9c2 monolayer with trypsin (Life-Technologies) to detach cells from the flask. Cells were counted in a CASY Cell Counter using a 150 um capillary and their density set at 5 * 10^4 cells per mL in supplemented assay DMEM. Infected H9c2 were dispensed into 384-well poly-lysine coated assay plates at 50uL per well using a Multidrop Combi dispenser. After seeding them, the plates were incubated at 37C, 5% CO2 for 72h. Cultures were then fixed and stained by addition of 50 uL of a solution containing 8% formaldehyde and 4 uM DRAQ5 DNA dye (BioStatus, UK) per well. […] Five images were collected per well for reliable statistical analysis. Automated image analysis was performed with a script developed on Acapella High Content Imaging and Analysis Software (PerkinElmer). Output: number of amastigotes per cell as infection level measurement.; assay type: functional, organism-based, Rattus norvegicus; conditions: H9c2, 4 h
Trypanosoma cruzi [4] = assay: as §1, with “H2C9” for “Trypanosoma cruzi”, “H9c2 Host Cardiomyocytes.” for “Infected Cells.”, “Number” for “percentage”, “H9c2 Host Cardiomyocytes nuclei to determine drug-related cytotoxicity.” for “infected cells per well as a second infection marker.”; assay type: functional, organism-based, Rattus norvegicus; conditions: H9c2, 4 h
Leishmania donovani [5] = assay: GSK_TCAKS: pIC50 Leishmania donovani viability assay using fluorescence intensity. Assay plates (1536-well) were prepared by adding 30nL per well of compound. For single shot assay, the final compound concentration was 5uM. […] Briefly, eGFP LdBOB axenic amastigotes were harvested, fixed and counted in a CASY cell counter (Roche-Applied Science). A final concentration of 1.5 * 10^5 cells per well were prepared in amastigote media containing 500 U/mL penicillin/streptomycin (Invitrogen) and 6uL was dispensed to each experimental well using a Multidrop Combi dispenser (Thermo Scientific). 6uL of assay media was dispensed to control columns used as reference for 100% compound response. Following incubation for 72 h at 37C, 5% CO2, 2 uL of resazurin was added to each well at a final concentration of 0.5 mM in phosphate buffered saline (PBS) with IGEPAL (Sigma-Aldrich), 0.05% (v/v).; assay type: functional, organism-based
Leishmania donovani [6] = assay: (§2) GSK_TCAKS: pIC50 Leishmania donovani Imaging: Infected Macrophages. Assay plates (384-well) were prepared by adding 250nL of compound to each well. For single shot assay, the final compound concentration was 5 uM. […] Automated image analysis was performed with a script developed on Acapella High Content Imaging and Analysis Software (PerkinElmer). Output: Percent of infected macrophage cells were reported for each well.; assay type: functional, organism-based, Homo sapiens; conditions: THP-1
Leishmania donovani [7] = assay: as §2, with “Amastigotes/Macrophages.” for “Infected Macrophages.”, “Average number” for “Percent”, “amastigotes per” for “infected”, “cell” for “cells”; assay type: functional, organism-based, Homo sapiens; conditions: THP-1
Leishmania donovani [8] = assay: as §2, with “THP-1 Host” for “Infected”, “THP-1 cell count” for “Percent of infected macrophage cells”; assay type: functional, organism-based, Homo sapiens
[9] = system: Trypanosoma brucei brucei; assay: GSK_TCAKS: pIC50 Trypanosoma brucei viability assay using fluorescence intensity. Assay plates (1536-well) were prepared by dispensing 25nL of compound solution per well using an Echo acoustic dispenser (Labcyte).; assay type: functional, organism-based; conditions: Lister 427, 2 h
[10] = system: Trypanosoma brucei brucei; assay: GSK_TCAKS: pIC50 Trypanosoma brucei viability assay using luminiscence. Assay plates (1536-well) were prepared. T. brucei cultures were harvested and counted in a CASY cell counter. A parasite suspension was prepared at a final concentration of 5 * 10^4 cells/mL in complete HMI9 medium and 6uL was dispensed to all wells containing compounds using a Multidrop Combi dispenser. 6uL of HMI9 media with 0.4% DMSO were dispensed to control columns. Plates were incubated for 24 h at 37C, 5% CO2 then tempered for 10 min at room temperature. ATP content was quantified by adding 4 uL of CellTiter-Glo Reagent (Promega) according to the manufacturer's instructions. Luminescence was measured using a ViewLux.; assay type: functional, organism-based; conditions: Lister 427, CASY
[11] = GSK_TCAKS: pIC50 HepG2 human cell line viability assay using luminiscence. […] Seeding density was checked to ensure that new mono-layers were not more than 50% confluent at the time of harvesting. Cell suspension was added to 500 mL of the same medium at a final density of 1.2 * 10^5 cells/mL. This cell suspension was dispensed (25 uL, 3000 cells per well) into 384-well clear-bottom plates using a Multidrop Combi dispenser. Prior to addition of the cell suspension, the screening compounds (250 nL) were pre-dispensed into the plates with an Echo liquid handler. Plates were incubated for 48 h at 37C, 5% CO2. After incubation, plates equilibrated at room temperature for 30 min before proceeding to develop the luminescent signal. The signal developer, CellTiter-Glo Reagent, was allowed to equilibrate at room temperature for 30 min and added to the plates (25uL per well) using a Multidrop Combi dispenser. Plates were left for 10 min at room temperature for stabilization and then read using a ViewLux.; assay type: toxicity, cell-based
[12] = target: Sterol 14-alpha demethylase (Trypanosoma cruzi (strain CL Brener), UniProt Q7Z1V1); assay: GSK_TCAKS: pIC50 CYP51 from Trypanosoma cruzi.; assay type: functional
Chain of Sterol 14-alpha demethylase (Q7Z1V1 whole entry): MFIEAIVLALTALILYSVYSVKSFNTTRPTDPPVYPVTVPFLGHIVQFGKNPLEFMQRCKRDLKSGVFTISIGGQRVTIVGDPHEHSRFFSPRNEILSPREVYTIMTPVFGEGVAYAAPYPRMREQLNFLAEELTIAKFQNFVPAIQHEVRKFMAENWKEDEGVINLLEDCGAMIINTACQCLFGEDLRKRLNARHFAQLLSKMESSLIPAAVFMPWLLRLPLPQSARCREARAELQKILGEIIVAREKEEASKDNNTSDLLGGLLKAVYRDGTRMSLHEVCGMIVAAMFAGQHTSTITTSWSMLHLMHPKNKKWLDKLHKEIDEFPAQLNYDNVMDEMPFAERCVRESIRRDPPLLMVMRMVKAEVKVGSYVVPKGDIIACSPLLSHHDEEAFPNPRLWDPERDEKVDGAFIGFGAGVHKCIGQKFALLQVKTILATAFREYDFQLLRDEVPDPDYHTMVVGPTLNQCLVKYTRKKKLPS

Row | SMILES | IC50 (Trypanosoma cruzi [1]) [µM] | IC50 (Trypanosoma cruzi [2]) [µM] | IC50 (Trypanosoma cruzi [3]) [µM] | IC50 (Trypanosoma cruzi [4]) [µM] | IC50 (Leishmania donovani [5]) [µM] | IC50 (Leishmania donovani [6]) [µM] | IC50 (Leishmania donovani [7]) [µM] | IC50 (Leishmania donovani [8]) [µM] | IC50 [9] [µM] | IC50 [10] [µM] | IC50 at 48 h [11] [µM] | IC50 [12] [µM]
1 | Cc1noc(C)c1COc1cccc(C(=O)N=c2[nH]cccc2C)c1 | > 50.1 | 50.1 | 39.8 | 2.51 | > 50.1 | 20 | 10 | 6.31 | 0.398 | 0.794 | > 100 | 50.1
2 | Cc1nc(C(=O)Nc2ccc3c(c2)OCO3)nn1-c1ccc(F)cc1 | 3.16 | 1.26 | 1 | > 50.1 | 2 | 7.94 | 2.51 | > 50.1 | > 39.8 | > 39.8 | > 100 | 39.8
3 | COc1cc(OC)cc(C(NS(=O)(=O)c2ccc(Cl)c(C(F)(F)F)c2)c2nccn2C)c1 (centres undefined) | 3.98 | 6.31 | 3.16 | 10 | 10 | 6.31 | 5.01 | > 50.1 | 7.94 | 7.94 | > 100 | 31.6
4 | Cc1ccc(C)c(CN2C(=O)NC3(CCc4ccccc43)C2=O)c1 (centres undefined) | 25.1 | 20 | 7.94 | > 50.1 | > 50.1 | > 50.1 | 15.8 | > 50.1 | 0.501 | 1 | > 100 | 39.8
5 | CCN(CC)c1ccc(S(=O)(=O)N(CC)CC)c2nonc12 | 25.1 | 50.1 | 20 | > 50.1 | 6.31 | 0.398 | 0.126 | 15.8 | 25.1 | 25.1 | > 100 | 25.1
6 | COc1ccc(OC)c2c(=O)c(Cc3ccccc3)c(C)[nH]c12 | 0.224 | 0.501 | 0.126 | > 50.1 | 0.398 | 3.98 | 2.51 | > 50.1 | > 39.8 | > 39.8 | > 100 | > 100
7 | CCCn1c(NC(=O)CCn2cc(Br)cn2)nc2ccccc21 | 5.01 | 6.31 | 2.51 | 25.1 | 10 | 10 | 5.01 | > 50.1 | 7.94 | 7.94 | > 100 | 10
8 | CCn1c(NC(=O)Cc2ccc(F)cc2)nc2ccccc21 | 5.01 | 7.94 | 3.98 | > 50.1 | 10 | 10 | 6.31 | > 50.1 | 3.16 | 5.01 | > 100 | 25.1
9 | N#Cc1cc(-c2ccnc(Nc3cccc(CN4CCOCC4)c3)n2)ccc1NCCN | 7.94 | 31.6 | 15.8 | 7.94 | 3.98 | 1.58 | 0.794 | 7.94 | 0.398 | 1.26 | 50.1 | 31.6
10 | CN(C)Cc1cccc(Nc2nccc(-c3ccc(NCCN)c(C#N)c3)n2)c1 | 1 | 10 | 1.58 | 2 | 2.51 | 1.26 | 0.501 | 6.31 | 0.0501 | 0.2 | 25.1 | 6.31
11 | O=C(CC1(O)C(=O)N(Cc2cccs2)c2ccc(Br)cc21)c1cccnc1 (centres undefined) | 5.01 | 39.8 | 25.1 | 3.98 | > 50.1 | > 50.1 | > 50.1 | 20 | 0.631 | 0.794 | 63.1 | 12.6
12 | COc1cnc2ccc(=O)n(CCN3CCC(NC/C=C/c4cc(F)ccc4F)CC3)c2c1 | 0.0158 | 0.02 | 0.01 | 15.8 | 5.01 | 5.01 | 2 | 39.8 | 0.398 | 0.794 | 63.1 | 15.8
13 | Cc1cc2cc(CNc3ccc4c(c3)OCO4)c(=O)n(CCO)c2cc1C | 0.631 | 0.251 | 0.2 | > 50.1 | 6.31 | 0.501 | 0.251 | 39.8 | 25.1 | > 39.8 | > 100 | 10
14 | Cc1nn2c(=O)c3c([nH]c2c1-c1ccc(Br)cc1)CCCC3 | 1 | 1.58 | 0.794 | > 50.1 | 10 | > 50.1 | 39.8 | > 50.1 | 0.398 | 0.794 | > 100 | > 100
15 | COc1ccc(C(=O)NC2CCN(CCn3c(=O)ccc4ncc(F)cc43)CC2)cc1Cl | 0.501 | 0.631 | 0.316 | > 50.1 | 3.98 | > 50.1 | 15.8 | > 50.1 | 0.126 | 0.251 | > 100 | 15.8
16 | c1ccc2[nH]c(-c3ccc(N4CCCC4)nc3)nc2c1 | 1 | 1.58 | 1 | > 50.1 | 5.01 | > 50.1 | > 50.1 | 31.6 | 0.794 | 1 | > 100 | > 100
17 | CC(c1ccc2c(c1)CCCC2)N(C)c1ncc2c(N)nc(N)nc2n1 (centres undefined) | 0.0316 | 0.0316 | 0.01 | 10 | 2.51 | 2 | 0.794 | 25.1 | 15.8 | 12.6 | 50.1 | 25.1
